In a compilation of properties of binary mixtures (doi:10.1016/j.molliq.2021.118292):

Assay: xn = mol fraction of the nth substance listed
Conditions: 298.15 K, 101 kPa

Work on CC(C)=O + CC(=O)[O-].CCCC[n+]1ccn(C)c1 yielded a speed of sound (x1 = 1) of 1163 m/s.

Work on O + CC(=O)[O-].CC[n+]1ccn(C)c1 yielded a speed of sound (x1 = 1) of 1495 m/s.

Compound CC(=O)[O-].CCCC[n+]1ccn(C)c1 + CC(C)=O has a speed of sound (x2 = 0) of 1650 m/s, a speed of sound (x2 = 0.2024) of 1600 m/s and a speed of sound (x2 = 0.3155) of 1566 m/s. The speed of sound (x2 = 0.49) was 1497 m/s, the speed of sound (x2 = 0.5915) was 1445 m/s and the speed of sound (x2 = 0.689) was 1384 m/s. For the same compound, the speed of sound (x2 = 0.8036) was 1301 m/s and the speed of sound (x2 = 0.8357) was 1276 m/s.

Work on CC[n+]1ccn(C)c1.N#C[S-] + CC(C)=O yielded a speed of sound (x2 = 0) of 1851 m/s, a speed of sound (x2 = 0.1125) of 1824 m/s and a speed of sound (x2 = 0.1889) of 1798 m/s. For the same compound, the speed of sound (x2 = 0.3058) was 1758 m/s, the speed of sound (x2 = 0.3917) was 1720 m/s and the speed of sound (x2 = 0.5127) was 1652 m/s. The speed of sound (x2 = 0.6) was 1590 m/s, the speed of sound (x2 = 0.6892) was 1513 m/s and the speed of sound (x2 = 0.7842) was 1417 m/s. It also gave a speed of sound (x2 = 0.9008) of 1286 m/s.

Work on CC(C)=O + CC[n+]1ccn(C)c1.N#C[S-] yielded a speed of sound (x1 = 1) of 1166 m/s.

CC(=O)[O-].CC[n+]1ccn(C)c1 + O gave a speed of sound (x2 = 0) of 1735 m/s, a speed of sound (x2 = 0.1306) of 1754 m/s and a speed of sound (x2 = 0.2326) of 1763 m/s. It also gave a speed of sound (x2 = 0.2865) of 1781 m/s, a speed of sound (x2 = 0.3671) of 1795 m/s and a speed of sound (x2 = 0.4047) of 1803 m/s. For the same compound, the speed of sound (x2 = 0.4896) was 1811 m/s, the speed of sound (x2 = 0.5258) was 1838 m/s and the speed of sound (x2 = 0.5507) was 1841 m/s. The speed of sound (x2 = 0.7151) was 1910 m/s, the speed of sound (x2 = 0.7317) was 1922 m/s and the speed of sound (x2 = 0.8099) was 1952 m/s. For the same compound, the speed of sound (x2 = 0.9053) was 1915 m/s.
